Measurements published in publication PMC8401699, “Synthesis, DFT Calculations, Antiproliferative, Bactericidal Activity and Molecular Docking of Novel Mixed-Ligand Salen/8-Hydroxyquinoline Metal Complexes” (Molecules, 2021).
Read-outs that look alike come from different tables or passages of the source.

Assays:
[1] = tested on: HEK-293 cells; assay: MTT cytotoxicity assay, normal cell line HEK-293; format: cell-based
Experimental: A cell suspension was diluted by complete medium to a concentration of 5 × 10^4 cell/mL. Using a micropipette, we pipetted 100 μL aliquots of the cell suspension into each well of 96-well plate (≈5000 cells/well). The 96-well plate was incubated at 37 °C for 24 h to allow cell attachment. After 24 h, cells were treated with 100 µL of growth medium containing […] of the newly synthesized compounds in triplicate. Cells were washed with phosphate-buffered saline (PBS), and fresh relevant medium containing 20 μL MTT in PBS (0.5 mg/mL) was added to the test wells. The plate was further incubated in a CO2 incubator at 37 °C for 4 h, and then MTT assay analysis was performed. The MTT assay technique is based on the reduction of the tetrazolium salt MTT to insoluble purple formazan by metabolically active cells, making their activities quantifiable by spectrophotometry. Accordingly, the formed formazan crystals were dissolved in 120 μL DMSO for each well. Cell viability was determined by measuring the absorbance of each well at 570 nm (and at a reference wavelength of 630 nm) using an ELISA plate reader.

[2] = tested on: MDA-MB231 cells; assay: MTT cytotoxicity assay, MDA-MB231; format: cell-based, human; conditions: read-out: IC50 Values, MDA-MB231 Cell Line
Experimental: (§1) The cytotoxic activities of the synthesized ligands and metal complexes against the breast cancer cell line MDA-MB231, the hepatic cellular (Hep-G2), and normal cell line (HEK-293) were assessed by MTT assay. A cell suspension was diluted by complete medium to a concentration of 5 × 10^4 cell/mL. Using a micropipette, we pipetted 100 μL aliquots of the cell suspension into each well of 96-well plate (≈5000 cells/well). The 96-well plate was incubated at 37 °C for 24 h to allow cell attachment. After 24 h, cells were treated with 100 µL of growth medium containing […] of the newly synthesized compounds in triplicate. Cells were washed with phosphate-buffered saline (PBS), and fresh relevant medium containing 20 μL MTT in PBS (0.5 mg/mL) was added to the test wells. […] The MTT assay technique is based on the reduction of the tetrazolium salt MTT to insoluble purple formazan by metabolically active cells, making their activities quantifiable by spectrophotometry. […] Cell viability was determined by measuring the absorbance of each well at 570 nm (and at a reference wavelength of 630 nm) using an ELISA plate reader. […] IC50 values were calculated using Graph Pad Prism version 6.01, 2012 (GraphPad software, San Diego, CA, USA), by plotting the log concentration versus corresponding viability (%) to generate dose–response curves. […]

[3] = tested on: Hep-G2 cells; assay: MTT cytotoxicity assay, Hep-G2; format: cell-based, human; conditions: read-out: IC50 Values, Hep-G2 Cell Line
Experimental: as §1

melting point	Compound	IC50 ([1]; read-out: IC50 Values, HEK-293 Cell Lines)	IC50 ([2]; MDA-MB231 breast carcinoma cells)	IC50 ([3]; Hep-G2 liver carcinoma cells)	IC50 ([1]; Homo sapiens, HEK293, read-out: IC50 Values, HEK-293 Cell Lines)	IC50 ([2]; Homo sapiens, MDA-MB-231, MDA-MB231 breast carcinoma cells)	IC50 ([3]; Homo sapiens, HepG2, Hep-G2 liver carcinoma cells)
–	N.N.[Cl][Pt][Cl] [Cisplatin, reference compound]	94.1 ± 0.05 µM	1.87 ± 0.09 µM	1.55 ± 0.06 µM	–	–	–
127 °C	Oc1ccccc1C=NCCN=Cc1ccccc1O [S, 2,2′-{1,2-ethanediylbis[nitrilo(E)methylylidene]}diphenol]	–	–	–	93.06 ± 0.04 µM	27.54 ± 0.08 µM	1.1 ± 0.1 µM
